Values after ≈ are worked out from the molar mass of the structure shown. Like-named read-outs stand apart in the source and are kept apart here.
Key:
Assay type in all cases: cell-based
[1] = tested on: Klebsiella pneumoniae KP4631; experiment: MIC assay, Klebsiella pneumoniae KP4631
Description: (§1) The antimicrobial activity of a selection of compounds were evaluated in a Gram-negative, Gram-positive and multi-resistant bacteria using the standard minimum inhibitory concentration (MIC) assay for an overnight (16-20 hour) incubation period. Commercially marketed antibiotics (Table 3) were used as positive controls during the study.
(§2) Mueller-Hinton broth (MH Broth) (Sigma-Aldrich; Millipore, cat. no. 70192) and Mueller-Hinton agar (MHA) (Sigma-Aldrich; Millipore, cat. no. 70191) were prepared as per manufacturer's instructions and sterilized by autoclaving. Approximately 20 mL of MHA was poured onto 15×100 mm petri dishes and allowed to set. Agar plates were then stored in plastic bags in an inverted position at 4° C.
(§3) Bacterial strains were provided in the form of a glycerol stock, stored at −80° C. For the purpose of preparation of bacterial suspension, appropriate strains were removed from −80° C. storage onto dry ice and not allowed to freeze-thaw.
(§4) Stock solutions of 16, 45 and 73 were provided in DMSO at 1.28 mg/mL concentration. From this stock solution, working solutions of the desired concentration were prepared by diluting with MHB.
(§5) MIC assay methodology was adapted from previously published work.
(§6) Bacterial isolate to be tested was streaked onto a nutrient-rich MH agar plate and incubated overnight at 37° C. in order to obtain single colonies.
(§7) After overnight incubation, single colonies with the same morphological appearance were chosen from the agar plate. These were touched using a sterile loop and transferred into a tube containing 10 mL of a MH broth. They were then mixed using vortex mixer and incubated at 35-37° C. in a shaker at 200 r.p.m. overnight.
(§8) Determination of OD600 and cfu/mL count OD600 (the optical density of a sample measured at a wavelength of 600 nm) of the overnight culture was measured. Because of the loss of linearity at OD600 values […], it was necessary to dilute the sample until the OD600 value was below 1.0. For all tested bacteria, a dilution of 1:10 was appropriate (100 μL in 900 μL broth).
(§9) The overnight culture was then diluted 1:100 using sterile tubes and MH broth (dilution: 10^−2). Serial dilution was then performed six times until dilution of 10^−8 was reached. 100 μL of dilutions 10^−7 and 10^−8 were plated onto MH agar plates in triplicate using a sterile cell spreader and incubated overnight at 37° C.
(§10) After overnight incubation, colonies on plates were counted and cfu per mL calculated. The following formula was applied: […]
(§11) After overnight incubation, the OD600 was measured and the overnight culture was diluted accordingly to obtain 1×10^8 cfu/mL. […]
(§12) The 96-well plates were read using a SpectraMax plate reader at an absorbance of 600 nm. […]

U138-MG (Glioblastoma) = experiment: In vitro cytotoxicity, MTT assay, U138-MG; conditions: Homo sapiens; U138-MG (Glioblastoma), MTT, 72 hour incubation; read-out: Cytotoxicity
Description: (§13) The in vitro cytotoxicity of a selection of compounds were evaluated in a panel of cell lines using the standard MTT assay for a 72 hour incubation period (Table 2). Free payloads produced cytotoxicities in the nanomolar range.
(§14) Tumor cell lines were maintained in RPMI1640 medium supplemented with 10% heat-inactivated fetal bovine serum, 2 mM L-glutamine and 1 mM sodium pyruvate. 1800 cells per well were seeded in a volume of 180 μl in a 96-well flat bottom polystyrene plate. The cells were allowed to adhere overnight at 37° C. in a CO2 incubator. Ligands were initially formulated in DMSO, and stocks stored at −80° C. They were then further formulated at lox concentration in RPMI1640 medium. 20 ul of diluted samples were added into each treatment well. On each plate, blank wells with no cells, and untreated wells containing cells, were included. Plates were then cultured at 37° C. in a CO2 incubator for 72 hrs. Cytotoxicity was evaluated using a tetrazolium salt-based assay, the MTT assay. After 72 hours, the supernatant was removed from each well and 200 μl of a sterile filtered 500 μg/ml MTT solution in water added to each well. The plates were then incubated at 37° C. in a CO2 incubator for 4 hrs. The supernatant was then removed and the formazan crystals formed solubilized by adding 150 μl of DMSO to each well. The plate was then read on a plate reader at 540 nm, and percentage cell survival calculated as follows: ((mean absorbance treated wells at concentration x−mean absorbance blank wells)+(mean absorbance untreated wells at concentration x−mean absorbance blank wells))×100. Data were plotted as concentration in nM vs. % cell survival in Microsoft Excel, and IC50 values (concentration where cell survival is reduced by a half) were determined from the graph.

A431 (Skin) = experiment: In vitro cytotoxicity, MTT assay, A431; conditions: Homo sapiens, A-431; A431 (Skin), MTT, 72 hour incubation; read-out: Cytotoxicity
Description: as §13, §14

REH (ALL) = experiment: In vitro cytotoxicity, MTT assay, REH; conditions: REH (ALL), MTT, 72 hour incubation; read-out: Cytotoxicity
Description: as §13, §14

E. coli K12 = experiment: MIC assay, E. coli K12; conditions: Escherichia coli, K12, E. coli K12 (Gram-negative), overnight (16-20 hour) incubation
Description: as §1, §2, §3, §4, §5, §6, §7, §8, §9, §10
For the generation of overnight cultures to be used for preparation of the bacterial suspension for MIC tests, a single colony of bacteria was selected using a sterile loop and a sterile tube with MH broth was inoculated followed by overnight incubation at […] in a shaker set to 200 r.p.m.
After overnight incubation, the OD600 was measured and the overnight culture was diluted accordingly to obtain 1×10^8 cfu/mL.
Free payload dilutions were prepared as per Table 4.
96-well sterile microtiter plates were used for MIC assay. The plate was filled with the respective free payload or positive control antibiotic concentrations in triplicate. 100 μL of broth was pipetted in the sterility control well (SC, column 12) and 50 μL in the growth control well (GC, column 11).
1×10^8 cfu/mL bacterial suspension was diluted 1:100 and 50 μL added to each well apart from SC. […]
as §12

EMRSA 16 = experiment: MIC assay, EMRSA 16; conditions: Staphylococcus aureus
Description: as §1, §2, §3, §4, §5, §6, §7, §8, §9, §10, §11, §12

Compound | MIC ([1]; Klebsiella pneumoniae, KP4631) | MIC (E. coli K12) | MIC (EMRSA 16) | also measured
Gentamicin [reference compound] |  |  |  | MIC ([1]; Klebsiella pneumoniae KP4631 (multi-resistant), overnight (16-20 hour) incubation): 1 to 2 µg/mL
COc1cc2c(cc1OCCCC(=O)Nc1cc(C(=O)Nc3ccc(-c4cc(C(=O)Nc5ccncc5)n(C)c4)cc3)n(C)c1)NC[C@@H]1CCCCN1C2=O [Compound 73, (S)-4-(4-((2-Methoxy-12-oxo-5,6,6a,7,8,9,10,12-octahydrobenzo[e]pyrido-[1,2-a][1,4]diazepin-3-yl)oxy)butanamido)-1-methyl-N-(4-(1-methyl-5-(pyridin-4-ylcarbamoyl)-1H-pyrrol-3-yl)phenyl)-1H-pyrrole-2-carboxamide] | 4 to 8 µg/mL (≈ 5.37 to 10.7 µM) | 2 µg/mL (≈ 2.69 µM) | 0.5 µg/mL (≈ 0.671 µM) | IC50 (U138-MG (Glioblastoma)): 301 nM; IC50 (A431 (Skin)): 144 nM; IC50 (REH (ALL)): 37.5 nM
COC(=O)c1cc(-c2ccc(NC(=O)c3cc(NC(=O)CCCOc4cc5c(cc4OC)C(=O)N4CCCC[C@H]4CN5)cn3C)cc2)cn1C [Compound 45, Methyl (S)-4-(4-(4-(4-((2-methoxy-12-oxo-5,6,6a,7,8,9,10,12-octahydrobenzo[e]pyrido[1,2-a][1,4]diazepin-3-yl)oxy)butanamido)-1-methyl-1H-pyrrole-2-carboxamido)phenyl)-1-methyl-1H-pyrrole-2-carboxylate] | > 128 µg/mL | > 128 µg/mL | 0.5 µg/mL (≈ 0.732 µM) | 
NC[C@H]1O[C@H](O[C@H]2[C@H](O)[C@@H](O[C@H]3O[C@H](CO)[C@@H](O)[C@H](N)[C@H]3O)[C@H](N)C[C@@H]2N)[C@H](O)[C@@H](O)[C@@H]1O [Kanamycin, reference compound] |  |  |  | MIC (E. coli K12; read-out: MIC): 2 to 4 µg/mL (≈ 4.13 to 8.26 µM)
CN[C@H](CC(C)C)C(=O)N[C@H]1C(=O)N[C@@H](CC(N)=O)C(=O)N[C@H]2C(=O)N[C@H]3C(=O)N[C@H](C(=O)N[C@H](C(=O)O)c4cc(O)cc(O)c4-c4cc3ccc4O)[C@H](O)c3ccc(c(Cl)c3)Oc3cc2cc(c3O[C@@H]2O[C@H](CO)[C@@H](O)[C@H](O)[C@H]2O[C@H]2C[C@](C)(N)[C@H](O)[C@H](C)O2)Oc2ccc(cc2Cl)[C@H]1O [Vancomycin, reference compound] |  |  |  | MIC (EMRSA 16; EMRSA 16 (Gram-positive), overnight (16-20 hour) incubation, read-out: MIC): 1 µg/mL (≈ 0.69 µM)

Source: patent US20210371413A1, “POLYCYCLIC AMIDES AS CYTOTOXIC AGENTS” (FEMTOGENIX LIMITED, priority 2018, published 2021)
